Reference: US9375484B2, “Taxane silicate prodrugs and nanoparticles” (REGENTS OF THE UNIVERSITY OF MINNESOTA, priority 2011, dated 2016)
Where two headings read alike, the source gives them in different places. Marks after values point to notes of the source that are not given here.

Experiments:
[1] = PTX silicate hydrolysis rates by 1H NMR; type: physicochemical; conditions: for krel at C2′ (hydrolysis rate relative to the slowest, 1d) / krel at C7 (hydrolysis rate relative to the slowest, 1d): d6-acetone:D2O:TFA 90:9:1, room temperature; for krel at C2′ (hydrolysis rate relative to the slowest, 1d): 1d = 1.0, ± SD of three trials; for krel at C7 (hydrolysis rate relative to the slowest, 1d): for 2a/2b rate of in situ generated 3a/3b to PTX
Protocol: A known quantity of a PTX prodrug was dissolved in 900 μL of d6-acetone. To this homogenous solution, 100 μL of a 9:1 solution of D2O: trifluoroacetic acid (TFA) was added, and the solution was vigorously mixed. The ^1H NMR spectra was taken (16 transients) on a 500 MHz Varian instrument at multiple time points over the course of more than three half-lives. The study was conducted at room temperature (rt=22.5° C.±1.0° C.) Upon completion of the study, the 2′ and/or 7 methine resonances were integrated in a baseline-adjusted NMR spectrum using MestRec software. The relative integrations were used to determine the extent of hydrolysis. The data from three replications was plotted on a semi-log scale to determine the kobs of the prodrug that were then converted to the krel data as presented, defining the rate of the most slowly hydrolyzed prodrug (1d) as krel=1.0. Errors are defined as the standard deviation of the three trials.
^1H NMR spectroscopy was used to establish relative hydrolysis rates of compounds 1-3. The compounds were dissolved in a solution of d6-acetone, D2O, and trifluoroacetic acid (TFA) in a 90:9:1 ratio (v/v/v). Resonances of, e.g., H2′ in the reactant silicate vs. product carbinol were monitored.

MDA-MB-231 cells = assay: MTT cytotoxicity of PTX silicate prodrugs; type: cell-based, human
Protocol: MDA-MB-231 and MDA-MB-231 Luciferase positive cells were maintained independently in MEM supplemented with 1% pen/strep and 10% FBS at 37° C. in a humidified incubator. MDA-MB-231 cells were obtained from the American Type Culture Collection. MDA-MB-231 Luc+ cells were obtained from CaliperLS (Hopkinton, Mass., USA). For MTT cytotoxicity studies, MDA-MB-231 cells were seeded at 8,000 cells/well in a 96 well plate in 100 μL MEM with 5% FBS. Paclitaxel, and paclitaxel silicate prodrug stock solutions of 10 mM were prepared in DMSO. Stock solutions were diluted to 2× concentration in MEM with 5% FBS, 100 μL volume, and pipetted into the 96 well plate. Concentration ranges were from 1-10,000 nM. After 48 hours, 30 μL of MTT working reagent was added to cells. Absorbance at 490 nm was monitored on a 96 well plate UV vis detector at 60 minutes. IC50 values were determined by nonlinear regression analysis of log concentration v. response data obtained from the MTT assay. The IC50 was interpolated from the resulting curves using Graphpad Prism v5.1 (Graphpad Software Inc. La Jolla Calif., USA).
Cytotoxicity of the PTX silicate prodrugs 1-3 was examined in the MDA-MB-231 human breast cancer cell line (Table 2).

Orthotopic 4T1 tumors = assay: 4T1 tumor growth in mice; type: in vivo, BALB/c mice
Protocol: Orthotopic 4T1 tumors were grown by injecting ˜1×10^6 tumor cells in the mammary fat pad of BALB/c mice. When the tumors were about 100 mm^3 in volume, the animals were injected with a single dose of paclitaxel dissolved in 1:1 mix of ethanol and cremophor (same formulation as Taxol®), silicate prodrug (2a) dissolved in 1:1 mix of ethanol and cremophor (same formulation as Taxol®), or silicate prodrug nanoparticles dispersed in buffered saline. Untreated animals or those treated with just cremophor/ethanol vehicle were used as controls. […] This study clearly indicates the benefit of formulating paclitaxel in the form of silicate prodrug nanoparticle formulation.

[2] = system: Tumor cells (4T1, PANC-1 or MDA-MB-231); assay: Cytotoxicity against tumor cells in vitro (MTS assay); type: cell-based; conditions: 72 hours, FIG. 2
Protocol: Tumor cells (4T1, PANC-1 or MDA-MB-231) were seeded in 96-well plates and allowed to attach. Cells were then treated with paclitaxel (solubilized in growth medium using ethanol), silicate prodrug (2a, solubilized in growth medium using ethanol), silicate prodrug nanoparticles (a 58:42 wt % mixture of the bis-triethyl silicate paclitaxel prodrug 2a and a 5K-10K PEG-PLGA BCP dispersed in growth medium) or copolymer-only (blank, no drug) nanoparticles for 72 hours. Cell viability was then measured using a standard MTS assay kit (Promega).

With `CCO[Si](O[C@@H](C(=O)O[C@H]1C[C@@]2(O)[C@@H](OC(=O)c3ccccc3)[C@@H]3[C@]4(OC(C)=O)CO[C@@H]4C[C@H](O)[C@@]3(C)C(=O)[C@H](OC(C)=O)C(=C1C)C2(C)C)[C@@H](NC(=O)c1ccccc1)c1ccccc1)(OC(C)(C)C)OC(C)(C)C` [Compound 1d, 2′-O-(di-t-butylethylorthosilyl)paclitaxel] the “krel at C2′ (hydrolysis rate relative to the slowest, 1d)” value [1] was 1.0 ± 0.1 and the IC50 (MDA-MB-231 cells; Homo sapiens, MDA-MB-231, 48 h) was 8140 nM.
With `CCO[Si](OCC)(OCC)O[C@H]1C[C@H]2OC[C@@]2(OC(C)=O)[C@H]2[C@H](OC(=O)c3ccccc3)[C@]3(O)C[C@H](OC(=O)[C@H](O)[C@@H](NC(=O)c4ccccc4)c4ccccc4)C(C)=C([C@@H](OC(C)=O)C(=O)[C@]12C)C3(C)C` [Compound 3a, 7-O-(triethylorthosilyl)paclitaxel] the “krel at C7 (hydrolysis rate relative to the slowest, 1d)” value [1] was 270 ± 10^ and the IC50 (MDA-MB-231 cells; Homo sapiens, MDA-MB-231, 48 h) was 21.4 nM.
With `CCCCCCCCO[Si](OCCCCCCCC)(OCCCCCCCC)OC(C(=O)OC1CC2(O)C(OC(=O)c3ccccc3)C3C4(OC(C)=O)COC4CC(O[Si](OCCCCCCCC)(OCCCCCCCC)OCCCCCCCC)C3(C)C(=O)C(OC(C)=O)C(=C1C)C2(C)C)C(NC(=O)c1ccccc1)c1ccccc1` (centres unmarked) [Compound 2b, 2′,7-Di-O-(tri-n-octylorthosilyl)paclitaxel] the “krel at C2′ (hydrolysis rate relative to the slowest, 1d)” value [1] was 460 ± 10 and the “krel at C7 (hydrolysis rate relative to the slowest, 1d)” value [1] was 41 ± 3^b.
For `CCCCCCCCO[Si](OCCCCCCCC)(OCCCCCCCC)OC(C(=O)OC1CC2(O)C(OC(=O)c3ccccc3)C3C4(OC(C)=O)COC4CC(O)C3(C)C(=O)C(OC(C)=O)C(=C1C)C2(C)C)C(NC(=O)c1ccccc1)c1ccccc1` (centres unmarked) [Compound 1b, 2-O-(tri-n-octylorthosilyl)paclitaxel], the “krel at C2′ (hydrolysis rate relative to the slowest, 1d)” value [1] was 710 ± 30 and the IC50 (MDA-MB-231 cells; MDA-MB-231 cells, cell viability measured after 48 h, MTT, read-out: IC50) was 35.6 nM.
With `CCO[Si](OCC)(OCC)O[C@@H](C(=O)O[C@H]1C[C@@]2(O)[C@@H](OC(=O)c3ccccc3)[C@@H]3[C@]4(OC(C)=O)CO[C@@H]4C[C@H](O)[C@@]3(C)C(=O)[C@H](OC(C)=O)C(=C1C)C2(C)C)[C@@H](NC(=O)c1ccccc1)c1ccccc1` [Compound 1a, 2′-O-(triethylorthosilyl)paclitaxel] the “difference of krel values between the extremes 1a and 1d” value ([1]; 1a versus 1d) was greater than 2000 ×, the “krel at C2′ (hydrolysis rate relative to the slowest, 1d)” value [1] was 2200 ± 600 and the “krel of 1a relative to 1b” value ([1]; hydrolysis rates of 1a and 1b called similar) was “ca. 3”. It also gave an IC50 (MDA-MB-231 cells; Homo sapiens, MDA-MB-231, 48 h) of 23 nM.
In the case of `CCCCCCCCO[Si](OCCCCCCCC)(OCCCCCCCC)O[C@H]1C[C@H]2OC[C@@]2(OC(C)=O)[C@H]2[C@H](OC(=O)c3ccccc3)[C@]3(O)C[C@H](OC(=O)[C@H](O)[C@@H](NC(=O)c4ccccc4)c4ccccc4)C(C)=C([C@@H](OC(C)=O)C(=O)[C@]12C)C3(C)C` [Compound 3b, 7-O-(tri-n-octylorthosilyl)paclitaxel], the “krel at C7 (hydrolysis rate relative to the slowest, 1d)” value [1] is reported as 55 ± 3^ and the IC50 (MDA-MB-231 cells; Homo sapiens, MDA-MB-231, 48 h) is reported as 540 nM.
In the case of `CC(=O)O[C@H]1C(=O)[C@@]2(C)[C@H]([C@H](OC(=O)c3ccccc3)[C@]3(O)C[C@H](OC(=O)[C@H](O)[C@@H](NC(=O)c4ccccc4)c4ccccc4)C(C)=C1C3(C)C)[C@]1(OC(C)=O)CO[C@@H]1C[C@@H]2O` [PTX, paclitaxel], the tumor volume (Orthotopic 4T1 tumors; Day 13, single dose, tumors about 100 mm^3 at injection) is reported as 1450±65 mm^3, the “reaction at the site of injection” value (Orthotopic 4T1 tumors; single injection, BALB/c mice) is reported as “severe tissue irritation and necrosis at the site of injection” and the IC50 (MDA-MB-231 cells; Homo sapiens, MDA-MB-231 cells, cell viability measured after 48 h, MTT, read-out: IC50) is reported as 23.6 nM.
In the case of `CCO[Si](OCC)(OCC)O[C@H]1C[C@H]2OC[C@@]2(OC(C)=O)[C@H]2[C@H](OC(=O)c3ccccc3)[C@]3(O)C[C@H](OC(=O)[C@H](O[Si](OCC)(OCC)OCC)[C@@H](NC(=O)c4ccccc4)c4ccccc4)C(C)=C([C@@H](OC(C)=O)C(=O)[C@]12C)C3(C)C` [Compound 2a, 2′,7-Di-O-(triethylorthosilyl)paclitaxel], the “anticancer efficacy (cell viability) compared with paclitaxel” value [2] is reported as “anticancer efficacy similar to the parent compound”, the “krel at C2′ (hydrolysis rate relative to the slowest, 1d)” value [1] is reported as 1800 ± 100 and the “krel at C7 (hydrolysis rate relative to the slowest, 1d)” value [1] is reported as 250 ± 10^a. For the same compound, the IC50 (MDA-MB-231 cells; Homo sapiens, MDA-MB-231, 48 h) was 74.4 nM.
With `CC(=O)O[C@H]1C(=O)[C@@]2(C)[C@H]([C@H](OC(=O)c3ccccc3)[C@]3(O)C[C@H](OC(=O)[C@H](O[Si](OC(C)C)(OC(C)C)OC(C)C)[C@@H](NC(=O)c4ccccc4)c4ccccc4)C(C)=C1C3(C)C)[C@]1(OC(C)=O)CO[C@@H]1C[C@@H]2O` [Compound 1c, 2′-O-(tri-i-propylorthosilyl)paclitaxel] the “krel at C2′ (hydrolysis rate relative to the slowest, 1d)” value [1] was 69 ± 4 and the IC50 (MDA-MB-231 cells; Homo sapiens, MDA-MB-231, 48 h) was 24.5 nM.
